In one assay the test system is Sprague Dawley rats. Briefly: Forced swim test (FST) in rats. The class given is in vivo, rat. Particulars: for Time Immobile / efficacy in FST relative to positive control desipramine, in words: rat FST; for Time Immobile: 23.5 hours after a single dose; for efficacy in FST relative to positive control desipramine, in words: 0.032 mg/kg. As to the method:
Compound 1 induced antidepressant-like effects in the forced swim test (FST) in rats with a 23.5-h pre-treatment time (FIG. 2).
Animals. Male Sprague Dawley rats, aged 9-10 weeks, were used in this experiment. Animals were housed in groups of 2 under controlled temperature (22±3° C.) and relative humidity (30-70%) conditions, with 12-hour light/dark cycles, and with ad libitum food and water. This study was carried out in strict accordance with the requirements of the Committee for the Purpose of Control and Supervision of Experiments on Animals (CPCSEA), India. All efforts were made to minimize suffering.
Drugs and Drug Administration. Compound 1 was synthesized as described above. Desipramine HCl was commercially obtained. The test compound, saline vehicle, and the positive control desipramine were administered subcutaneously (SC), with doses calculated based on the freebase. Normal saline was used as the vehicle. All compounds were administered at a volume of 5 mL/kg. The test compound and vehicle were administered 0.5 h after the start of the training swim (Swim 1) and 23.5 h before the test swim (Swim 2). Desipramine was administered 3 times, at 23.5 h, 5 h, and 1 h before the test swim (Swim 2), each time at a dose of 20 mg/kg. Group size was n=10 per treatment.
Forced Swim Test (FST). […] Rats were handled for about 2 min daily for the 5 days prior to the beginning of the experimental procedure. On the first day of the experiment (i.e., Day 0), post randomization, training swim sessions (Swim 1) were conducted between 12:00 and 18:00 h with all animals by placing rats in individual glass cylinders (46 cm tall×20 cm in diameter) containing 23-25° C. water 30 cm deep for 15 minutes. At the conclusion of Swim 1, animals were dried with paper towels, placed in heated drying cages for 15 minutes, and then returned to their home cages. Animals were then administered the appropriate drug or vehicle treatment(s), as described above. For clarity, a compound administration time of 23.5 h before Swim 2 means 0.5 h after the start of Swim 1 and 0.25 h after the completion of Swim 1 (i.e., immediately after return to the home cage). On Day 1 (i.e., 24 h after start of Swim 1), animals performed the test swim (Swim 2) for a period of 5 min but otherwise under the same conditions as Swim 1. During all swim sessions, the water was changed between each animal.
Behavioral scoring was conducted by observers who were blind to the treatment groups. Animals were continuously observed during Swim 2 and the total time spent engaging in the following behaviors was recorded: immobile, swimming, and climbing. A rat was judged to be immobile when it remained floating in the water without struggling and was making only those movements necessary to keep its head above water. A rat was judged to be swimming when it made active swimming motions, more than necessary to merely maintain its head above water (e.g., moving around in the cylinder). A rat was judged to be climbing when it made active movements with its forepaws in and out of the water, usually directed against the walls.
Statistical Analysis. The data points shown represent the mean±standard error of the mean (SEM). Analysis was performed using GraphPad Prism 6. Comparisons between groups were performed using the one-way analysis of variance (ANOVA), followed by Dunnett's test for comparisons to vehicle.
Additional disclosed compounds were tested in the forced swim test (FST) in rats according to the procedure described in Example 35.

The subject of a further assay is C57BL/6 mice. Briefly: Marble burying test (MBT) in mice. The class given is in vivo, mouse. Particulars: SC, 30-minute period. As to the method: Compound 1 produced an anxiolytic-like effect in the marble burying test (MBT) in C57BL/6 mice (FIG. 3).
Animals. Adult male C57BL/6 mice, aged 8-10 weeks (body weight 20-25 g) were used in these experiments. Animals were housed under controlled temperatures and 12-hour light/dark cycles (lights on between 07:00-19:00 h), with ad libitum food and water. This study was carried out in strict accordance with the requirements of the Committee for the Purpose of Control and Supervision of Experiments on Animals (CPCSEA), India. All efforts were made to minimize suffering.
Drugs and Drug Administration. Compound 1 was synthesized as described above. Desipramine HCl was commercially obtained. The test compound, vehicle, and the positive control desipramine were administered subcutaneously (SC), with doses calculated based on the freebase. Normal saline was used as the vehicle. All compounds were administered at a volume of 10 mL/kg. All treatments were administered 30 minutes prior to the start of behavioral testing. Group size was n=9-10 per treatment.
Marble Burying Test (MBT). […] Mice were handled for about 2 min daily for the 3 days prior to the beginning of the experimental procedure. […] The total number of marbles buried were counted in three 10-minute time bins (total 30 minutes). […]

Regarding `CCCN1C[C@H](C(=O)N[C@H](C)CC)C=C2c3cccc4[nH]cc(c34)C[C@H]21` [Compound 3, (6aR,9R)-N-((R)-sec-butyl)-7-propyl-4,6,6a,7,8,9-hexahydroindolo[4,3-fg]quinoline-9-carboxamide], the “Time Immobile” value is 137.5 s in the assay on Sprague Dawley rats (0.032 mg/kg SC) and 50.4 s with Sprague Dawley rats (0.32 mg/kg SC).
`CCN(CC)C(=O)[C@@H]1C=C2c3cccc4[nH]cc(c34)C[C@H]2N(CCCF)C1` [Compound 2, (6aR,9R)-N,N-diethyl-7-(3-fluoropropyl)-4,6,6a,7,8,9-hexahydroindolo[4,3-fg]quinoline-9-carboxamide]: the results for the “Time Immobile” value in the assay on Sprague Dawley rats (0.032 mg/kg SC) and in the assay with Sprague Dawley rats (0.32 mg/kg SC) were 76.44 s and 41.33 s, respectively. Also, the “efficacy in FST relative to positive control desipramine, in words” value in the assay with Sprague Dawley rats (SC) is on record as “as efficacious as the positive control desipramine”.
`CCCN1C[C@H](C(=O)NC(CC)CC)C=C2c3cccc4[nH]cc(c34)C[C@H]21` [Compound 6, (6aR,9R)-N-(pentan-3-yl)-7-propyl-4,6,6a,7,8,9-hexahydroindolo[4,3-fg]quinoline-9-carboxamide]: the entries for the “Time Immobile” value in the assay on Sprague Dawley rats (0.032 mg/kg SC) and in the assay with Sprague Dawley rats (0.32 mg/kg SC) were 93.6 s and 76.6 s, respectively.
Consider `CCCN1C[C@H](C(=O)N2[C@@H](C)C[C@@H]2C)C=C2c3cccc4[nH]cc(c34)C[C@H]21` [Compound 4, ((2S,4S)-2,4-dimethylazetidin-1-yl)((6aR,9R)-7-propyl-4,6,6a,7,8,9-hexahydroindolo[4,3-fg]quinolin-9-yl)methanone], for which the “Time Immobile” value is 110.4 s in the assay with Sprague Dawley rats (0.01 mg/kg SC), 68.89 s in the assay with Sprague Dawley rats (0.032 mg/kg SC) and 117.9 s in the assay on Sprague Dawley rats (0.32 mg/kg SC). In addition, the “efficacy in FST relative to positive control desipramine, in words” value with Sprague Dawley rats (SC) is reported as “as efficacious as the positive control desipramine”.
Regarding `CCCN1C[C@H](C(=O)N(CC)CC)C=C2c3cccc4[nH]cc(c34)C[C@H]21` [Compound 1, (6aR,9R)-N,N-diethyl-7-propyl-4,6,6a,7,8,9-hexahydroindolo[4,3-fg]quinoline-9-carboxamide], the “Time Immobile” value in the assay on Sprague Dawley rats (0.032 mg/kg SC) amounted to 161.6 s; with Sprague Dawley rats (0.32 mg/kg SC) it was 68.2 s. Also, in the assay on Sprague Dawley rats (rats, SC, 23.5 hours after a single administration), the “immobility time relative to vehicle control, in words” value is “reduced immobility time”. The “number of marbles buried compared to vehicle, in words” value in the assay on C57BL/6 mice is “reduced the number of marbles buried”.

These data come from patent publication US20240368151A1, “NOVEL ERGOLINES AND METHODS OF TREATING MOOD DISORDERS” (priority 2021, published 2024).
